Reference: ChEMBL document CHEMBL3507680, “University of Dundee, Gates Library screen for HepG2 cell viability”

Test: Human HepG2 cell viability assay in 384 well format
Format: toxicity, cell-based
Parameters: dose 125 nL, time 70.5 hour; concentration not given beside the values
Details: HepG2 cells, read-out: Inhibition

Row | Compound | cytotoxicity at 70.5 h [%]
1 | O=S1(=O)N(c2ccccc2)C[C@@H](O)[C@]12CCNC2 | -3.92
2 | CO[C@@H]1CN(c2ccccc2)S(=O)(=O)[C@@]12CCNC2 | 11.6
3 | CN1CC[C@H](N(C)Cc2ccccc2)C[C@H](O)C1 | -10.5
4 | CN1CC[C@H](N(Cc2ccccc2)C2COC2)C[C@H](O)C1 | -6.77
5 | COC(=O)CC1c2cccnc2C(=O)N1Cc1ccccc1 (stereo not drawn) | -3.32
6 | CCOC(=O)N1[C@@H](c2ccco2)[C@@H](C(=O)O)C[C@]12CCCCNC2=O | -7.52
7 | CCN1Cc2cc(F)ccc2N(CC(O)C(F)(F)F)CCC1=O (stereo not drawn) | -8.41
8 | CCCC(O)CN1CCC(=O)N(CC)Cc2cc3c(cc21)OCO3 (stereo not drawn) | -3.11
9 | CN1C(=O)[C@H](OC(N)=O)[C@@H](C(=O)Nc2ccccc2)C12CCNCC2 | -10.7
10 | CC(C)COC(=O)N1[C@@H](c2ccco2)[C@@H](CO)C[C@]12CCCCNC2=O | -9.55
11 | CCN1CCC(=O)N(C)Cc2cc(F)ccc21 | -8.5
12 | O=C(Nc1ccccc1)N1C(CN2CCOCC2)[C@]2(O)CC[C@H]1CC2 (stereo partly drawn) | -2.88
13 | O=C1CCNc2ncc(-c3cccc(Cl)c3)cc2CN1C1CC1 | -1.89
14 | O=C1CCNc2ncc(-c3ccccc3Cl)cc2CN1C1CC1 | 0.196
15 | NC(=O)CN1CC(O)c2ccccc2S1(=O)=O (stereo not drawn) | -9.19
16 | COC1CN(CCO)S(=O)(=O)c2ccccc21 (stereo not drawn) | -7.83
17 | O=C1CCNc2cc3c(cc2CN1Cc1ccco1)OCO3 | -5.93
18 | CCOC(=O)[C@@H]1[C@@H](c2ccccc2)CN2CCNC[C@H]12 | -11
19 | CO[C@@H]1CN(c2ccccc2)S(=O)(=O)[C@@]12CCN(Cc1ccccc1)C2 | -1.84
20 | CO[C@@H]1CN(c2ccccc2)S(=O)(=O)[C@@]12CCN(Cc1cncs1)C2 | -2.7
21 | CO[C@H]1CN(c2ccccc2)S(=O)(=O)[C@@]12CCN(Cc1ccccc1)C2 | 19.1
22 | CC(O)CN1CCC(=O)N(Cc2ccccc2)Cc2ccccc21 (stereo not drawn) | 21.2
23 | COCC(O)CN1CCC(=O)N(CC=C(C)C)Cc2ccccc21 (stereo not drawn) | -6.53
24 | COCCN1CC(O)CN(C(=O)c2ccc(SC)cc2)CC1=O (stereo not drawn) | -4.29
25 | CCOC(=O)N1CC(=O)N(Cc2ccc(OC)cc2)CC(O)C1 (stereo not drawn) | 0.836
26 | CC(C)CN1CC(O)CN(C(=O)c2cccc(C(F)(F)F)c2)CC1=O (stereo not drawn) | 13.3
27 | CCCC(O)CN1CC(C)(C)CN(C(=O)CCc2ccccc2)CC1=O (stereo not drawn) | 19.5

Row | Compound | cytotoxicity at 70.5 h [%]
28 | CC(C)(C)CN1CC(O)CN(C(=O)c2cccc(C(F)(F)F)c2)CC1=O (stereo not drawn) | -7.28
29 | COc1ccccc1C(=O)N1CC(=O)N(C2CCCCC2)CC(O)C1 (stereo not drawn) | 15.8
30 | O=C1CN(C(=O)c2ccc(Cl)cc2)CC(O)CN1Cc1cccs1 (stereo not drawn) | -5.51
31 | COC1CCN(C(=O)CC(C)(C)C)CC(=O)N(C)c2ccccc21 (stereo not drawn) | 6.54
32 | COC1CCN(C(=O)Nc2ccccc2)CC(=O)N(C)c2ccccc21 (stereo not drawn) | -6.71
33 | CCOC(=O)CNC(=O)N1CCC(OC)c2ccccc2N(C)C(=O)C1 (stereo not drawn) | -6.05
34 | CCOC(=O)COC1CCN(C(C)=O)CC(=O)N(C)c2ccccc21 (stereo not drawn) | -3.91
35 | O=C(CC1CCCC1)N1CCN2C[C@@H](CO)[C@H](c3ccccc3)[C@H]2C1 | 24.2
36 | CNC(=O)[C@@H]1[C@@H](c2ccccc2)CN2CCN(Cc3cc(C)no3)C[C@H]12 | -4.59
37 | Cc1cc(CN2CCN3C[C@H](c4ccccc4)[C@@H](CO)[C@H]3C2)on1 | -5.95
38 | COCC(=O)N1CC2=CC(C)(C)COc3ccc(OC)c(c32)C1 | 21.5
39 | COc1ccc2c3c1CN(C(=O)N(C)C)CC3=CC(C)(C)CO2 | -6.85
40 | COc1ccc2c3c1CN(S(C)(=O)=O)CC3=CC(C)(C)CO2 | -6.24
41 | CCCS(=O)(=O)N1CC(=O)N(Cc2ccccc2OC)CC(O)C1 (stereo not drawn) | 18.5
42 | CC(C)COC(=O)N1CC(=O)N(CCCc2ccccc2)CC(O)C1 (stereo not drawn) | -4.38
43 | COc1cccc(OC)c1CN1CC(O)CN(S(C)(=O)=O)CC1=O (stereo not drawn) | 25.6
44 | COC1CN(C(=O)NC2CCCC2)CCC(=O)N(C)c2ccccc21 (stereo not drawn) | -1.11
45 | CCN1Cc2cc(F)ccc2N(C(C)=O)CCC1=O | -3.82
46 | CCN1Cc2cc(F)ccc2N(C(=O)C2CCC2)CCC1=O | -9.67
47 | CC(C)CCc1cc(C(=O)O)nc2[nH]c(=O)[nH]c(=O)c12 | -15.5
48 | NCCC(Cc1ccccc1)c1ccco1 (stereo not drawn) | 35
49 | Cc1cnc(N2CCC3(CCC(C(=O)NC(C)C)OC3)CC2)nc1 (stereo not drawn) | -2.25
50 | CC(=O)NCc1noc2c1CN(Cc1ccsc1)CC2 | -7.56
51 | Cc1ccc(CN2C[C@H]3C[C@H](C(=O)NCc4cccnc4)[C@@H](C2)O3)o1 | -8.69
52 | Cc1cccc(S(=O)(=O)N2C[C@H]3C[C@H](C(=O)NCC(C)C)[C@@H](C2)O3)c1 | 25.7
53 | CCN(CC)c1ccc2ccc(C(=O)O)cn12 | -5.88
